Data as given in ChEMBL document CHEMBL1132901, “Synthesis and structure-activity relationships of quaternary ammonium cephalosporins with 3-pyrazolylpyridinium derivatives” (2000).
Values after ≈ are worked out from the molar mass of the structure shown.

Legend:
[1] = test system: Enterobacter cloacae; assay: In vitro antimicrobial activity against Enterobacter 1321 E; type: functional
[2] = test system: Escherichia coli; assay: In vitro antimicrobial activity against Escherichia coli 055; type: functional
[3] = test system: Escherichia coli; assay: In vitro antimicrobial activity against Escherichia coli 1507E; type: functional
[4] = test system: Escherichia coli; assay: In vitro antimicrobial activity against Escherichia coli DC 0; type: functional
[5] = test system: Escherichia coli; assay: In vitro antimicrobial activity against Escherichia coli DC 2; type: functional
[6] = test system: Escherichia coli; assay: In vitro antimicrobial activity against Escherichia coli TEM; type: functional
[7] = test system: Enterobacter cloacae; assay: In vitro antimicrobial activity against Enterobacter cloacae P99; type: functional
[8] = test system: Klebsiella oxytoca; assay: In vitro antimicrobial activity against Klebsiella oxytoca 1082; type: functional
[9] = test system: Klebsiella aerogenes; assay: In vitro antimicrobial activity against Klebsiella aerogenes 1522 E; type: functional
[10] = test system: Pseudomonas aeruginosa; assay: In vitro antimicrobial activity against Pseudomonas aeruginosa 1771; type: functional
[11] = test system: Pseudomonas aeruginosa; assay: In vitro antimicrobial activity against Pseudomonas aeruginosa 1771 M; type: functional
[12] = test system: Pseudomonas aeruginosa; assay: In vitro antimicrobial activity against Pseudomonas aeruginosa 9027; type: functional
[13] = test system: Salmonella typhimurium; assay: In vitro antimicrobial activity against Salmonella Typhimurium; type: functional, Salmonella enterica subsp. enterica serovar Typhimurium; conditions: Salmonella enterica
[14] = test system: Streptococcus pyogenes; assay: In vitro antimicrobial activity against Streptococcus pyogenes 77A; type: functional
[15] = test system: Streptococcus pyogenes; assay: In vitro antimicrobial activity against Streptococcus pyogenes A 308; type: functional
[16] = test system: Streptococcus pyogenes; assay: In vitro antimicrobial activity against Streptococcus pyogenes SG 511; type: functional
[17] = test system: Staphylococcus aureus; assay: In vitro antimicrobial activity against Methicillin resistant Staphylococcus aureus (MRSA); type: functional
[18] = test system: Staphylococcus aureus; assay: In vitro antimicrobial activity against Staphylococcus aureus 285; type: functional
[19] = test system: Staphylococcus aureus; assay: In vitro antimicrobial activity against Staphylococcus aureus 503; type: functional
[20] = test system: Enterococcus faecium; assay: In vitro antimicrobial activity against Streptococcus faecium MD 8b; type: functional
[21] = test system: Pseudomonas aeruginosa; assay: In vitro antimicrobial activity against Pseudomonas aeruginosa 1592 E; type: functional

| Structure (SMILES) | MIC [1] [µg/mL] | MIC [2] [µg/mL] | MIC [3] [µg/mL] | MIC [4] [µg/mL] | MIC [5] [µg/mL] | MIC [6] [µg/mL] | MIC [7] [µg/mL] | MIC [8] [µg/mL] | MIC [9] [µg/mL] | MIC [10] [µg/mL] | MIC [11] [µg/mL] | MIC [12] [µg/mL] | MIC [13] [µg/mL] | MIC [14] [µg/mL] | MIC [15] [µg/mL] | MIC [16] [µg/mL] | MIC [18] [µg/mL] | MIC [19] [µg/mL] | MIC [20] [µg/mL] | MIC [21] [µg/mL] | also measured |
| --- | --- | --- | --- | --- | --- | --- | --- | --- | --- | --- | --- | --- | --- | --- | --- | --- | --- | --- | --- | --- | --- |
| CO/N=C(/C(=O)N[C@@H]1C(=O)N2C(C(=O)[O-])=C(C[n+]3cccc(-c4cc(C(N)=O)nn4CCO)c3)CS[C@H]12)c1csc(N)n1 | 0.049 (≈ 0.0781 µM) | 0.098 (≈ 0.156 µM) | 0.195 (≈ 0.311 µM) | 0.098 (≈ 0.156 µM) | 0.098 (≈ 0.156 µM) | 0.391 (≈ 0.623 µM) | 50 (≈ 79.7 µM) | 6.25 (≈ 9.96 µM) | 0.098 (≈ 0.156 µM) | 3.12 (≈ 4.98 µM) | 0.781 (≈ 1.24 µM) | 25 (≈ 39.8 µM) | 0.098 (≈ 0.156 µM) | 0.025 (≈ 0.0398 µM) | 0.049 (≈ 0.0781 µM) | 1.56 (≈ 2.49 µM) | 3.12 (≈ 4.98 µM) | 0.781 (≈ 1.24 µM) | 6.25 (≈ 9.96 µM) | 12.5 (≈ 19.9 µM) | MIC [17]: 25 µg/mL (≈ 39.8 µM) |
| CO/N=C(/C(=O)N[C@@H]1C(=O)N2C(C(=O)[O-])=C(C[n+]3cccc(-c4cc(N)[nH]n4)c3)CS[C@H]12)c1csc(N)n1 | 0.013 (≈ 0.0234 µM) | 0.013 (≈ 0.0234 µM) | 0.025 (≈ 0.045 µM) | 0.025 (≈ 0.045 µM) | 0.013 (≈ 0.0234 µM) | 0.049 (≈ 0.0882 µM) | 50 (≈ 90 µM) | 1.56 (≈ 2.81 µM) | 0.025 (≈ 0.045 µM) | 0.781 (≈ 1.41 µM) | 0.195 (≈ 0.351 µM) | 3.12 (≈ 5.62 µM) | 0.049 (≈ 0.0882 µM) | 0.007 (≈ 0.0126 µM) | 0.007 (≈ 0.0126 µM) | 0.391 (≈ 0.704 µM) | 0.781 (≈ 1.41 µM) | 0.195 (≈ 0.351 µM) | 1.56 (≈ 2.81 µM) | 1.56 (≈ 2.81 µM) | MIC [17]: 25 µg/mL (≈ 45 µM) |
| CO/N=C(/C(=O)N[C@@H]1C(=O)N2C(C(=O)[O-])=C(C[n+]3cccc(-c4cc(CO)nn4CCO)c3)CS[C@H]12)c1csc(N)n1 | 0.098 (≈ 0.159 µM) | 0.098 (≈ 0.159 µM) | 0.391 (≈ 0.636 µM) | 0.195 (≈ 0.317 µM) | 0.098 (≈ 0.159 µM) | 0.781 (≈ 1.27 µM) | > 50 | 12.5 (≈ 20.3 µM) | 0.195 (≈ 0.317 µM) | 6.25 (≈ 10.2 µM) | 0.781 (≈ 1.27 µM) | 25 (≈ 40.7 µM) | 0.391 (≈ 0.636 µM) | 0.049 (≈ 0.0797 µM) | 0.049 (≈ 0.0797 µM) | 6.25 (≈ 10.2 µM) | 6.25 (≈ 10.2 µM) | 1.56 (≈ 2.54 µM) | 12.5 (≈ 20.3 µM) | 12.5 (≈ 20.3 µM) | MIC [17]: 25 µg/mL (≈ 40.7 µM) |
| CO/N=C(/C(=O)N[C@@H]1C(=O)N2C(C(=O)[O-])=C(C[n+]3cccc(-c4cc(N)n(C)n4)c3)CS[C@H]12)c1csc(N)n1 | 0.025 (≈ 0.0439 µM) | 0.025 (≈ 0.0439 µM) | 0.049 (≈ 0.086 µM) | 0.025 (≈ 0.0439 µM) | 0.013 (≈ 0.0228 µM) | 0.098 (≈ 0.172 µM) | 25 (≈ 43.9 µM) | 1.56 (≈ 2.74 µM) | 0.025 (≈ 0.0439 µM) | 1.56 (≈ 2.74 µM) | 0.391 (≈ 0.686 µM) | 6.25 (≈ 11 µM) | 0.049 (≈ 0.086 µM) | 0.007 (≈ 0.0123 µM) | 0.013 (≈ 0.0228 µM) | 0.781 (≈ 1.37 µM) | 0.781 (≈ 1.37 µM) | 0.391 (≈ 0.686 µM) | 1.56 (≈ 2.74 µM) | 3.12 (≈ 5.49 µM) | MIC [17]: 50 µg/mL (≈ 87.8 µM) |
| CO/N=C(/C(=O)N[C@@H]1C(=O)N2C(C(=O)[O-])=C(C[n+]3cccc(-c4cc[nH]n4)c3)CS[C@H]12)c1csc(N)n1 | 0.098 (≈ 0.181 µM) | 0.049 (≈ 0.0906 µM) | 0.195 (≈ 0.361 µM) | 0.098 (≈ 0.181 µM) | 0.049 (≈ 0.0906 µM) | 0.195 (≈ 0.361 µM) | > 25 | 6.25 (≈ 11.6 µM) | 0.098 (≈ 0.181 µM) | 6.25 (≈ 11.6 µM) | 3.12 (≈ 5.78 µM) | 25 (≈ 46.2 µM) | 0.195 (≈ 0.361 µM) | 0.025 (≈ 0.0462 µM) | 0.049 (≈ 0.0906 µM) | 3.12 (≈ 5.78 µM) | 3.12 (≈ 5.78 µM) | 0.781 (≈ 1.44 µM) | 6.25 (≈ 11.6 µM) | 12.5 (≈ 23.1 µM) | – |
| CO/N=C(/C(=O)N[C@@H]1C(=O)N2C(C(=O)[O-])=C(C[n+]3cccc(-c4cc(CO)nn4C)c3)CS[C@H]12)c1csc(N)n1 | 0.049 (≈ 0.0838 µM) | 0.049 (≈ 0.0838 µM) | 0.098 (≈ 0.168 µM) | 0.049 (≈ 0.0838 µM) | 0.049 (≈ 0.0838 µM) | 0.195 (≈ 0.334 µM) | > 25 | 6.25 (≈ 10.7 µM) | 0.098 (≈ 0.168 µM) | 3.12 (≈ 5.35 µM) | 0.391 (≈ 0.669 µM) | 25 (≈ 42.8 µM) | 0.195 (≈ 0.334 µM) | 0.025 (≈ 0.0428 µM) | 0.049 (≈ 0.0838 µM) | 3.12 (≈ 5.35 µM) | 3.12 (≈ 5.35 µM) | 0.781 (≈ 1.34 µM) | 6.25 (≈ 10.7 µM) | 12.5 (≈ 21.4 µM) | – |
